Tests used:
β-catenin = test: Wnt signaling experiments: β-catenin expression in monocultures of ECs; assay type: cell-based, human; conditions: EC monoculture; for expression of active β-catenin: after 1 day; for expression and nuclear localization of total β-catenin: day 3, BIO 0.5 µM, Wnt3a 6.25 ng/mL
Protocol: For Wnt signaling experiments, mono- and co-culture systems were used. In monoculture, 8×10^4 CD34^+-ECs were seeded on the Matrigel-coated transwell insert. […] Co-cultures were prepared as described before. The CD34^+-derived ECs co-cultured with pericytes for 1 or 6 days were used in the signaling experiments. Agonist (0.5–5 µM BIO) was added into the basolateral compartment while antagonist (0.1–3 µM XAV939 (Selleckbio)) was added in the apical part of the transwell system.
Immunostaining. Cells were fixed in cold methanol/acetone (50%/50% v/v) for 1 min or 4% (v/v) paraformaldehyde (Electron Microscopy Sciences, EMS) for 10 min at room temperature (see Table S1). After permeabilizing the cells with 0.1% (v/v) Triton X-100 (Sigma-Aldrich) for 5-10 min, whenever required, and blocking for 30 min with 1% (w/v) bovine serum albumin (BSA) solution (Sigma-Aldrich) or normal goat serum (10% (v/v), Sigma-Aldrich), the cells were incubated for 1 h with the primary monoclonal antibodies listed in Table S1, at room temperature. After washing, the cells were stained with a secondary antibody for 1 h in the dark at room temperature (Table S1). In each immunofluorescence experiment, an isotype-matched IgG control was used. The nuclei of cells was stained with 4',6-diamidino-2-phenylindole (DAPI; Sigma-Aldrich) or Hoescht reagent (ICN Pharmaceuticals). Cells were mounted using Mowiol (Sigma-Aldrich) containing an anti-fading agent (Dabco, Sigma-Aldrich) or cell-mounting medium from DAKO. Cells were examined with a Zeiss LSM 50 confocal microscope or with a Leica DMR fluorescence microscope (Leica Microsystems). In the last case, images were collected using a Cool SNAP RS Photometrics camera (Leica Microsystems) and were processed using Adobe Photoshop software 5.5 (Adobe systems).
FACS analysis. Cells were dissociated from the culture plate by exposure to Cell Dissociation Buffer (Life Technologies) for 3-5 min and gentle pipetting, centrifuged and finally resuspended in PBS supplemented with 5% (v/v) FBS. The single cell suspensions were aliquoted (2.0×10^5 cells per condition), fixed with 4% (v/v) paraformaldehyde (PFA; EMS) or ice-cold absolute methanol and permeabilized with 0.1% (w/v) Triton X-100 (Fluka) when necessary. The cells were stained with antigen-specific primary antibodies (dilution ratios and list of antibodies are given on Table S1). After the incubation with primary antibodies, cells were incubated with phycoerytrin (PE)-conjugated anti-rabbit (R&D Systems), and PE-conjugated anti-mouse (Santa Cruz) secondary antibodies. FACS Calibur (BD Biosciences) and BD Cell Quest Software (BD Biosciences) were used for the acquisition and analysis of the data.

CD34+-derived ECs [1] = test: qRT-PCR of claudin-1 and LEF1 in ECs treated with Wnt ligands; assay type: cell-based, human; conditions: EC monoculture
Protocol: (§1) For Wnt signaling experiments, mono- and co-culture systems were used. In monoculture, 8×10^4 CD34^+-ECs were seeded on the Matrigel-coated transwell insert. The cells were then incubated with agonists/ligands (6.25 ng/mL–100 ng/mL Wnt3A (R&D Systems), 6.25 ng/mL–250 ng/mL Wnt7A (Peprotech) or 0.5–5 µM BIO (Sigma)) for 1 or 5 days. Co-cultures were prepared as described before. The CD34^+-derived ECs co-cultured with pericytes for 1 or 6 days were used in the signaling experiments. Agonist (0.5–5 µM BIO) was added into the basolateral compartment while antagonist (0.1–3 µM XAV939 (Selleckbio)) was added in the apical part of the transwell system.
Reverse transcription and quantitative real time polymerase chain reaction (qRT-PCR) analysis. CD34^+-ECs cultured in different conditions were homogenized in Trizol reagent (Life Technologies) and total RNA was extracted using the RNeasy Mini Kit (Qiagen), according to manufacturer’s instructions. In all cases, cDNA was prepared from 1 μg total RNA using Taqman Reverse transcription reagents (Applied Biosystems). Non-quantitative RT-PCR was performed using the conditions described in [4] and DNA migrated on a agarose gel electrophoresis (1.5%) with a low range DNA molecular weight marker (Euromedex) to visualize the sizes. Gels were then stained with gel red nucleic acid gel stain (Interchim) and visualized on a UV light transilluminator (Bio-Rad). Quantitative real time PCR (qRT-PCR) was performed using Power SYBR Green PCR Master Mix (Applied Biosystems) and the detection was carried out in a 7500 Fast Real-Time PCR System (Applied Biosystems). Quantification of target genes was performed relatively to the reference GAPDH gene: relative expression = 2^[-(Ctsample^-CtGADPH^)]. Primer sequences are given as supporting information (Table S2).

[2] = test system: monocultures of CD34+-derived ECs; test: Wnt signaling experiments: paracellular permeability of treated EC monocultures; assay type: cell-based, human; conditions: Wnt3a 6.25 ng/mL
Protocol: (§2) Prior to the experiments, HEPES-buffered Ringer’s solution (in some cases EBM-2 medium) was added to empty wells of a 12-well plate (Costar). Filter inserts, containing confluent monolayers of CD34^+-ECs, were subsequently placed in the 12-well plate, filled with compound solution containing the fluorescent integrity marker Lucifer Yellow (20 µM; Life Technologies), and then placed on an orbital shaker. After 1 h, filter inserts were withdrawn from the receiver compartment. Aliquots from the donor solution were taken at the beginning and at the end of the experiments and the fluorescence was quantified. At least three inserts with cells and three without cells were tested in each permeability measurement. Fluorescence detection was carried out on a Synergy H1 multiplates reader (Biotek) using the following excitation/emission wavelength (nm) settings: 432/538; 490/516; 542/570 for Lucifer yellow, Fluorescein Na and Cy3-Human Serum Albumin and Human IgG respectively.
To obtain a concentration-independent transport parameter, the clearance principle was used. The increment in cleared volume was calculated by dividing the amount of compound in the receiver compartment by the drug concentration in the donor compartment. The volume cleared was plotted versus time and the slope estimated by linear regression analysis. The slope of the clearance curve with inserts alone and inserts with cells is equal to PSf and PSt, respectively, where PS (microliters/minute) is the permeability surface area (square centimeter) product. The PS-value for endothelial monolayer (PSe) was calculated. To generate the endothelial permeability coefficient, Pe (cm/min), the PSe value was divided by the surface area of the filter (A in cm^2) insert using the following equation: Pe = [1/PSt−1/PSf]^−1/A. To assess possible adsorption to plastics and non-specific binding to cells, the mass balance (%) was calculated from the amount of compound recovered in both compartments at the end of the experiment divided by the total amount added in the donor compartment at time zero. For Pe determination, mass balance value should be between 80% and 120%.
as §1

CD34+-derived ECs [3] = test: Immunostaining of claudin-1 in treated EC monocultures; assay type: cell-based, human; conditions: EC monoculture, day 6; BIO 0.5 µM, Wnt3a 6.25 ng/mL
Protocol: as §1
Immunostaining. Cells were fixed in cold methanol/acetone (50%/50% v/v) for 1 min or 4% (v/v) paraformaldehyde (Electron Microscopy Sciences, EMS) for 10 min at room temperature (see Table S1). After permeabilizing the cells with 0.1% (v/v) Triton X-100 (Sigma-Aldrich) for 5-10 min, whenever required, and blocking for 30 min with 1% (w/v) bovine serum albumin (BSA) solution (Sigma-Aldrich) or normal goat serum (10% (v/v), Sigma-Aldrich), the cells were incubated for 1 h with the primary monoclonal antibodies listed in Table S1, at room temperature. […] Cells were examined with a Zeiss LSM 50 confocal microscope or with a Leica DMR fluorescence microscope (Leica Microsystems). […]

P-gp = P-gp (Homo sapiens, UniProt P08183); conditions: [3H]-vincristine sulphate 66.5 nM, 2 h; 25 μM verapamil or 0.5 μM elacridar
[4] = test system: cord blood-derived ECs co-cultured with astrocytes; design: method as in PMID 24392113; conditions: BBB model of cord blood-derived ECs co-cultured with astrocytes; cited from earlier work
[5] = test system: brain-like endothelial cells (BLECs); test: Endothelial permeability (Pe) to Lucifer yellow, ECs co-cultured with pericytes (BLECs); assay type: in vitro ADME, human; conditions: day 6, n = 60
Protocol: For co-culture experiments, pericytes were initially seeded on 60-mm gelatin-coated petri dishes and cultured in Dulbecco’s Modified Eagle’s Medium (DMEM) (Life Technologies) supplemented with 20% (v/v) FBS (Life Technologies), 2 mM L-glutamine, 50 µg/mL gentamycin and 1 ng/mL bFGF. The cells reached confluency after 2 days. 45×10^3 cells were seeded into each well of 12-well plates (Costar). […]
Prior to the experiments, HEPES-buffered Ringer’s solution (in some cases EBM-2 medium) was added to empty wells of a 12-well plate (Costar). […] Aliquots from the donor solution were taken at the beginning and at the end of the experiments and the fluorescence was quantified. […] Fluorescence detection was carried out on a Synergy H1 multiplates reader (Biotek) using the following excitation/emission wavelength (nm) settings: 432/538; 490/516; 542/570 for Lucifer yellow, Fluorescein Na and Cy3-Human Serum Albumin and Human IgG respectively.
(§3) To obtain a concentration-independent transport parameter, the clearance principle was used. The increment in cleared volume was calculated by dividing the amount of compound in the receiver compartment by the drug concentration in the donor compartment. […] The PS-value for endothelial monolayer (PSe) was calculated. […]

[6] = test system: monolayers of CD34+-derived ECs (monoculture); test: Endothelial permeability (Pe) to Lucifer yellow, ECs in monoculture; assay type: in vitro ADME, human; conditions: CD34+-derived ECs grown to confluence on filters for 6 days
Protocol: as §2
as §3, with “compartment. The volume cleared was plotted versus time and the slope estimated by linear regression analysis.” for “compartment.”

BLECs = test: Expression of adhesion molecules by BLECs (FACS); assay type: cell-based, human; conditions: 10 ng/mL for 24 h
Protocol: Adhesion molecule expression by BLECs was determined by FACS. For these experiments, CD34^+-ECs were cultured with pericytes for 6 days. After co-culture, transwells with BLEC monolayers were transferred to a new 12-well plate. BLECs were treated with 10 ng/mL TNF-α (Peprotech) for 24 h. Untreated BLECs were used as control. Cells were dissociated from the culture plate by exposure to Cell Dissociation Buffer (Life Technologies) for 3–5 min and gentle pipetting, centrifuged and finally resuspended in PBS supplemented with 5% (v/v) FBS. The single cell suspensions were aliquoted (2.0×10^5 cells per condition) and incubated with primary antibodies against human CD40, ICAM1, ICAM2, VCAM1, PECAM1 (Table S1). After the incubation with primary antibodies, cells were incubated with phycoerytrin (PE)-conjugated anti-rabbit (R&D Systems), and PE-conjugated anti-mouse (Santa Cruz) secondary antibodies. FACS Calibur (BD Biosciences) and BD Cell Quest Software (BD Biosciences) were used for the acquisition and analysis of the data.
FACS analysis. Cells were dissociated from the culture plate by exposure to Cell Dissociation Buffer (Life Technologies) for 3-5 min and gentle pipetting, centrifuged and finally resuspended in PBS supplemented with 5% (v/v) FBS. […]

[7] = long-term: 1 day of monoculture + 5 day of treatment, Wnt7a 6.25 ng/mL, BIO 0.5 µM

Chain of P-gp (P08183 whole entry): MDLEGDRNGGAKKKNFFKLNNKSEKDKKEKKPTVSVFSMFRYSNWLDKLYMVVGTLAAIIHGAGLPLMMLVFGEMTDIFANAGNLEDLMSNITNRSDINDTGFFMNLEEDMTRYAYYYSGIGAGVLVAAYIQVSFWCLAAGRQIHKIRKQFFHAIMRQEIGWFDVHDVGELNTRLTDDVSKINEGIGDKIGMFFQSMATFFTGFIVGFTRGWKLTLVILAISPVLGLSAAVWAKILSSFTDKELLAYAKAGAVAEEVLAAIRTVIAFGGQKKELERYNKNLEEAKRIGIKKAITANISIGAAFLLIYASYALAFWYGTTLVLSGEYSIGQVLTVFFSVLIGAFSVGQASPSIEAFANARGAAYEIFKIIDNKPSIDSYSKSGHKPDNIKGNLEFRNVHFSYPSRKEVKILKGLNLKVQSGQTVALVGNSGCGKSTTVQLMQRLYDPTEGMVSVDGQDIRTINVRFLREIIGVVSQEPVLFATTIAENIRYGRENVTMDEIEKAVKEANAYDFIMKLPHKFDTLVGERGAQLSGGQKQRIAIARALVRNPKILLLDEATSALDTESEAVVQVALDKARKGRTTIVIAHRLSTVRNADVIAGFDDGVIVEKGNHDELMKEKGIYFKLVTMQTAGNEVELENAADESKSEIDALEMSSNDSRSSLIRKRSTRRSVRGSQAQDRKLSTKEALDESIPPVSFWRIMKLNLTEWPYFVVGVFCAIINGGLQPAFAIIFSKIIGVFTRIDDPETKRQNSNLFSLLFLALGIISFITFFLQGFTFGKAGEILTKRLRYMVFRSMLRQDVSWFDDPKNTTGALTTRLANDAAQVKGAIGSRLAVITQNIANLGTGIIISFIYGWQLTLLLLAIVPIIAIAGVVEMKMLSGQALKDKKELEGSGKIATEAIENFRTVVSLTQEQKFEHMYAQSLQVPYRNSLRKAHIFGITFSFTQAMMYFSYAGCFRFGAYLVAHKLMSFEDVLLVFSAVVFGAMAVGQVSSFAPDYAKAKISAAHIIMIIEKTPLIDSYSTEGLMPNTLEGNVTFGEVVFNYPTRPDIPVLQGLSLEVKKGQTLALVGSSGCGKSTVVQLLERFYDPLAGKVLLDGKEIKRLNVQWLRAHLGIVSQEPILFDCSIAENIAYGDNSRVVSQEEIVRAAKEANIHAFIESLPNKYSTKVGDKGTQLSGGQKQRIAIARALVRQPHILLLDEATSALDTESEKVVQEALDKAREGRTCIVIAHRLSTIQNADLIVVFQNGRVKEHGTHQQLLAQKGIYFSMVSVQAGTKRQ

Molecule | expression of active β-catenin (β-catenin) | expression and nuclear localization of total β-catenin (β-catenin) | LEF1 gene expression (CD34+-derived ECs [1]) | claudin-1 gene expression (CD34+-derived ECs [1]) | paracellular permeability to Lucifer Yellow versus untreated cells [2, 7] | localization of claudin-1 (CD34+-derived ECs [3]) | also measured
O=C1Nc2cc(Br)ccc2/C1=C1/Nc2ccccc2/C1=N\O [BIO] | increasing | increase | up-regulation | up-regulation | only observed after 5-day treatment | localization of claudin-1 at the cell-cell contacts | –
COc1cc2c(cc1OC)CN(CCc1ccc(NC(=O)c3cccc4c(=O)c5cccc(OC)c5[nH]c34)cc1)CC2 [elacridar] | – | – | – | – | – | – | accumulation of vincristine in BLECs on inhibition of P-gp (P-gp): significant increase
Lucifer yellow | – | – | – | – | – | – | Pe to Lucifer yellow [4]: 20.5 ×10⁻⁶ cm/s; permeability to Lucifer yellow [5]: 0.61±0.15×10^−3 cm/min; permeability to Lucifer yellow [6]: 33.3 ×10⁻⁶ cm/s
TNF-α | – | – | – | – | – | – | expression of ICAM-1, ICAM-2, CD40 and VCAM-1 (BLECs): up-regulation
Wnt3a: human recombinant protein Wnt3a, Wnt ligand (protein, UniProt P56704 19-352, looked up) Protein Wnt-3a: SYPIWWSLAVGPQYSSLGSQPILCASIPGLVPKQLRFCRNYVEIMPSVAEGIKIGIQECQHQFRGRRWNCTTVHDSLAIFGPVLDKATRESAFVHAIASAGVAFAVTRSCAEGTAAICGCSSRHQGSPGKGWKWGGCSEDIEFGGMVSREFADARENRPDARSAMNRHNNEAGRQAIASHMHLKCKCHGLSGSCEVKTCWWSQPDFRAIGDFLKDKYDSASEMVVEKHRESRGWVETLRPRYTYFKVPTERDLVYYEASPNFCEPNPETGSFGTRDRTCNVSSHGIDGCDLLCCGRGHNARAERRREKCRCVFHWCCYVSCQECTRVYDVHTCK | increasing | increase | up-regulation | up-regulation | statistical lower | localization of claudin-1 at the cell-cell contacts | paracellular permeability to Lucifer Yellow versus untreated cells ([2]; short-term: 5 days of monoculture + 1 day of treatment, P<0.01, n = 4): statistical lower
Wnt7a: human recombinant protein Wnt7a, Wnt ligand (protein, UniProt O00755 32-349, looked up) Protein Wnt-7a: LGASIICNKIPGLAPRQRAICQSRPDAIIVIGEGSQMGLDECQFQFRNGRWNCSALGERTVFGKELKVGSREAAFTYAIIAAGVAHAITAACTQGNLSDCGCDKEKQGQYHRDEGWKWGGCSADIRYGIGFAKVFVDAREIKQNARTLMNLHNNEAGRKILEENMKLECKCHGVSGSCTTKTCWTTLPQFRELGYVLKDKYNEAVHVEPVRASRNKRPTFLKIKKPLSYRKPMDTDLVYIEKSPNYCEEDPVTGSVGTQGRACNKTAPQASGCDLMCCGRGYNTHQYARVWQCNCKFHWCCYVKCNTCSERTEMYTCK | – | – | – | – | only observed after 5-day treatment | – | –
